Data taken from patent EP3871665B1, “INHIBITORS OF RNA-BINDING PROTEINS AS ANTI-CANCER DRUGS” (priority 2020, dated 2021).

Legend:
[1] = test system: ES-2 IGF2BP1-KO cells re-expressing GFP-IGF2BP1; test: 2D growth / proliferation (cell confluence, IncuCyte S3), cells re-expressing wild type IGF2BP1; format: cell-based
Protocol: (§1) Statistical significance was analyzed by logrank test. […] Modified cysteines are highlighted in bold and upper position. […] Right: Local atomic fluctuations around cysteine residues. […] (A-C) RNA-dependent protein-protein association assay. […] EV (1) indicates mock-transfected controls. Representative Western (A) and Northern (C) blots are shown. P, pulldown; I, input. […] A representative Western blot analysis is shown in (C). […] Six mice were analyzed per condition. Error bars indicate standard deviation. […] Error bars indicate standard deviation of three analyses. […] DMSO-treated cells were used for comparisons. […] (*) p < 0.05, (**) p < 0.01, (***) p < 0.001. […] Data represent the mean ± SD (n = 6). […] (**) p < 0.01.
To probe if the identified residues are druggable targets, a search for chemical probes with exquisite chemo- and regioselectivity to cysteine residues was performed and their ability to target IGF2BP1's Cys253 and Cys336 was tested, whilst functioning as inhibitors. […] Both probes are known to covalently modify cysteine residues in a highly site-specific manner. […] These probes were then used in ES-2 IGF2BP1 KO cells, re-expressing either the wild type version of IGF2BP1 or the C253/336A mutant. The initial assay was set to observe if the probes influence the 2D growth, determined here as cell density, of ES-2 cells in a IGF2BP1-Cys253/336-dependent manner. IC50 values were determined by measuring the cell viability or cell confluence of cells incubated with increasing concentrations of J2 and J5.

[2] = test system: ES-2 IGF2BP1-KO cells re-expressing GFP-IGF2BP1C253/336A; test: 2D growth / proliferation (cell confluence, IncuCyte S3), cells re-expressing C253/336A mutant; format: cell-based
Protocol: as §1
(§2) To probe if the identified residues are druggable targets, a search for chemical probes with exquisite chemo- and regioselectivity to cysteine residues was performed and their ability to target IGF2BP1's Cys253 and Cys336 was tested, whilst functioning as inhibitors. […] Both probes are known to covalently modify cysteine residues in a highly site-specific manner. […] The initial assay was set to observe if the probes influence the 2D growth, determined here as cell density, of ES-2 cells in a IGF2BP1-Cys253/336-dependent manner. IC50 values were determined by measuring the cell viability or cell confluence of cells incubated with increasing concentrations of J2 and J5.

[3] = Drug-likeness assessment / solubility in the assays; format: physicochemical
IGF2BP1 = target: T1, IGF2BP1 (Homo sapiens, UniProt Q9NZI8); test: Site-specific protein modification (Cys-to-Dha conversion), LC-MS/MS readout; format: biochemical
T1 construct: made in house
Protocol: as §1
A multiple-Cys-containing RNA-binding protein with a recognized role in cancer is selected, for example and not limited to, the Insulin-like growth factor 2 mRNA binding protein 1 (IGF2BP1). It is then expressed in bacteria (not limited to), purified and submitted to site-specific protein modification reactions in vitro using cysteine-directed probes (Cys-to-Dha conversion), for example and not limited to, the compound 2,5 dibromohexanediamide (1). The reactions are performed in mild conditions, PBS buffer pH 8.0 for 1 h at 37∘C, using increasing equivalents of 1. The resulting reaction is then purified with a spin column and submitted to trypsin digestion followed by LC-MS/MS using standard protocols. The identification of Dha-modified peptides is performed by adding the corresponding mass shift of 33.9878 m/z (Dha) as a post-translational modification in the global search for modifications. The Dha conversion of specific cysteine residues is located within the primary sequence of the protein of interest (POI) to uncover preferentially modified cysteine residues.

[4] = test system: ES-2 IGF2BP1-KO cells re-expressing the GFP-IGF2BP1C253/336A mutant; test: Cell viability (CellTiter Glo), cells re-expressing C253/336A mutant; format: cell-based; conditions: cell viability 72h, read-out: IC50C253/336A
Protocol: as §1, §2

[5] = test system: tumors bearing ES-2 cells re-expressing the C253/336A mutant; test: Xenograft tumor growth, ES-2 cells re-expressing C253/336A mutant; format: in vivo, female SCID mice; conditions: 0.1 mg/kg daily intraperitoneally
Protocol: (§3) (A) Representative images of tumor cell spheroids (top panel), tumor cell invasion in matrigel (middle panel), and spheroid growth in anoikis resistance assays (lower panel) observed for ES-2 IGF2BP1-KO cells re-expressing GFP (1), wild type GFP-IGF2BP1 (2) or GFP- IGF2BP1-C253/336A (3). (B) Quantification of 2 independent experiments (n=9) shown in (A): spheroid viability (left panel), invasion index (middle panel) and anoikis resistance (right panel). Statistical significance was calculated by unpaired t-test as indicated. […] Tumor formation was determined for ES-2 IGF2BP1-KO cells re-expressing wild type IGF2BP1 (GFP-I1, 1) or GFP-IGF2BP1-C253/336A (GFP-C253/336A, 2). The tumor volume was measured at indicated time points post-injection by a caliper, (A). The final volume (B) and weight (C) of removed tumors were determined and are shown by boxplots. Representative images of macroscopic tumors acquired by non-invasive infrared imaging in mice (D) and excised tumors 17d post-injection (E). Six mice were analyzed per condition. Error bars indicate standard deviation. Statistical significance was calculated by unpaired t test with Welch's correction or ordinary one-way ANOVA with Tukey's multiple comparison test. […] 2000 cells either from ES-2 IGF2BP1-KO cells re-expressing GFP-IGF2BP1 or GFP-IGF2BP1C253/336A were seeded in a 96 well plate.

[6] = test system: panel of cancer cell lines; test: Cell proliferation (IncuCyte S3 confluence) in a panel of cancer cell lines; format: cell-based; conditions: 72h
[7] = test system: ES-2 IGF2BP1-KO cells re-expressing the wild type GFP-IGF2BP1; test: Cell viability (CellTiter Glo), cells re-expressing wild type IGF2BP1; format: cell-based
Protocol: as §1
To probe if the identified residues are druggable targets, a search for chemical probes with exquisite chemo- and regioselectivity to cysteine residues was performed and their ability to target IGF2BP1's Cys253 and Cys336 was tested, whilst functioning as inhibitors. […] The initial assay was set to observe if the probes influence the 2D growth, determined here as cell density, of ES-2 cells in a IGF2BP1-Cys253/336-dependent manner. IC50 values were determined by measuring the cell viability or cell confluence of cells incubated with increasing concentrations of J2 and J5.

[8] = test system: xenografts bearing ES-2 cells re-expressing the wild-type IGF2BP1 (GFP-IGF2BP1); conditions: 0.1 mg/kg daily intraperitoneally; GFP-IGF2BP1 tumors
Protocol: as §3

[9] = test system: ES-2 IGF2BP1-KO cells re-expressing GFP-IGF2BP1C253/336A; test: Spheroid Matrigel invasion assay, cells re-expressing C253/336A mutant; format: cell-based; conditions: up to 6 µM; 24h post-treatment
Protocol: as §3

T1 sequence (Q9NZI8 whole entry): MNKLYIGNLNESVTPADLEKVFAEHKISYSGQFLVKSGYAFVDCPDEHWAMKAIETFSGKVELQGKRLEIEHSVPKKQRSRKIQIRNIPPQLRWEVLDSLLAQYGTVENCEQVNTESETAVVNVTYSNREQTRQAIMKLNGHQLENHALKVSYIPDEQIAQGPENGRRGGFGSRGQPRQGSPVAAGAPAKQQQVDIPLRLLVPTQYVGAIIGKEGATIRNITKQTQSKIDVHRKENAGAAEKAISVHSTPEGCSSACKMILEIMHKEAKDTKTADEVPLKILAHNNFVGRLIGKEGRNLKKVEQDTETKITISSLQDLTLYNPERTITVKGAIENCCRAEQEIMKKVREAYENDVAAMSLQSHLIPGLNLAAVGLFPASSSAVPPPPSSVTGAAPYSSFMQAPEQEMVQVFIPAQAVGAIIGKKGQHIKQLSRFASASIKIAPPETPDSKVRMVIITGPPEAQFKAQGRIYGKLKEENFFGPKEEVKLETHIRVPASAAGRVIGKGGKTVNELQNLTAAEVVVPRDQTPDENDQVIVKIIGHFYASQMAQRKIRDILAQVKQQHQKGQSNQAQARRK

Row | SMILES | growth of ES-2 cells ([1]; 1µM, cells re-expressing the wild type protein) | IC50 ([1]; cells expressing wild type IGF2BP1, confluence at 72h, DMSO = 100% growth) [nM] | selective cytoreductive effect ([1]; wild type vs C253/336A mutant cells) [fold] | growth of cells ([2]; 1µM, cells expressing the C253/336A mutant) | IC50 ([2]; Homo sapiens, ES-2 cells expressing the C253/336A mutant, confluence at 72h) [nM] | solubility [3] | equivalents at which Cys253 was modified (IGF2BP1; PBS buffer pH 8.0, 1 h, 37°C) [eq] | equivalents at which Cys336 was modified (IGF2BP1; PBS buffer pH 8.0, 1 h, 37°C) [eq] | equivalents at which Cys336 was modified, in some reactions (IGF2BP1; in some reactions) [eq] | equivalents at which almost all cysteines (exception Cys110) were modified (IGF2BP1; in vitro) | IC50 [4] [nM] | anti-tumor effect (tumor volume, tumor mass) [5] | potency in a panel of cancer cell lines [6] | IC50 ([7]; cell viability 72h, CellTiter Glo) [nM] | selectivity to ES-2 cells re-expressing the wild type IGF2BP1 ([7]; wild type vs C253/336A) [fold] | anti-tumor effect (tumor volume, tumor mass) [8] | invasion [9]
1 | O=C(/C=C/C(=O)c1ccccc1)NCCNc1ccc([N+](=O)[O-])c2nonc12 [J2, (E)-N-(2-((7-nitrobenzo[c][1,2,5]oxadiazol-4-yl)amino)ethyl)-4-oxo-4-phenylbut-2-enamide] | strong impairment | 840 | 2 | no substantial impact | 2200 | solubility problems | – | – | – | – | – | – | – | – | – | – | –
2 | NC(=O)C(Br)CCC(Br)C(N)=O (stereo not drawn) [compound 1, 2,5 dibromohexanediamide] | – | – | – | – | – | – | 200 | 300 | 200 | above 500 eq | – | – | – | – | – | – | –
3 | CCNC(=O)/C=C/C(=O)c1ccccc1 [J5, (E)-N-ethyl-4-oxo-4-phenylbut-2-enamide] | – | – | – | – | – | much higher solubility | – | – | – | – | 1750 | absolutely no effect | potency as anti-cancer drug in all of them | 970 | 1.8 | strong anti-tumor effect | unchallenged invasion
